From PubChem BioAssay AID1996
Values after ≈ are worked out from the molar mass of the structure shown.

Settings: buffer; pH 7.4; 200.0 µM

SMILES	solubility kinetic [µg/mL]
O=C(OCC(=O)N1CCOCC1)c1ccccc1OCc1ccc(Cl)cc1	> 58.5
COCCNC(=O)c1cc(C(=O)CC(C)C)c[nH]1	> 37.8
COc1ccc(S(=O)(=O)N2CCCc3ccccc32)cc1[N+](=O)[O-]	9.7 (≈ 27.8 µM)
COc1ccc(C(=O)NCCc2cn3ccccc3n2)cc1	42.9 (≈ 145 µM)
Brc1c(-c2ccc3c(c2)OCO3)nc2ncccn12	38.8 (≈ 122 µM)
CN1CCN(CC(=O)c2ccccc2F)CC1.O=C(O)C(=O)O	42.9
CC(C)(C)c1ccc(/C=C/C(=O)NCCCN2CCOCC2)cc1	32.3 (≈ 97.7 µM)
CCN1CCCC1CNC(=O)C(=O)NC (stereo unspecified)	> 32
COC(=O)c1ccc(C(=O)OC)c(NC(=S)N2CCCC(CO)C2)c1 (stereo unspecified)	50.9 (≈ 139 µM)
CCCC(=O)NCc1ccncc1	> 26.7
CC1=C(C(=O)OC(C)C)C(c2ccc(O)cc2)NC(=O)N1 (stereo unspecified)	> 43.5
Nc1nonc1OCCOCCOCCOc1nonc1N	45.7 (≈ 144 µM)
CCc1cccc(C)c1NC(=O)c1cccnc1	34.4 (≈ 143 µM)
Cc1ccc(NC(=O)CN(C)C(=O)c2ccc(Cl)nc2)cc1	> 47.7
Fc1cccc(Cl)c1CNCc1cccnc1	> 37.6
COc1ccccc1CNC(=O)CCN1C(=O)c2ccccc2C1=O	> 50.8
CN(C)C(CNc1ncnc2ccccc12)c1c(F)cccc1Cl (stereo unspecified)	49.4 (≈ 143 µM)
Cc1cccc(Nc2ccc3nonc3c2[N+](=O)[O-])c1C	< 0.2
CC(C)CCn1c(=O)c(C(=O)NCc2ccco2)c(O)c2ccccc21	< 0.4
Cc1cccc(CC(=O)Nc2cccnc2)c1	31 (≈ 137 µM)
O=C(Nc1ccc2ccccc2n1)c1ccccc1Br	4.6 (≈ 14.1 µM)
NC1=NC(=O)/C(=C/c2ccc(OCC(=O)O)cc2)S1	> 41.7
CN(Cc1ccccc1)C(=O)COC(=O)/C=C/c1ccco1	> 44.9
CC(C)CN(C(=O)C1CC1)C1CCS(=O)(=O)C1 (stereo unspecified)	> 38.9
CCc1nc2ccccc2c(C(=O)OCC(=O)Nc2ccc(NC(C)=O)cc2)c1C	12.1 (≈ 29.8 µM)

SMILES	solubility kinetic [µg/mL]
Nc1cccc(P(=O)(c2ccccc2)c2ccccc2)c1	> 44
O=C(Nc1ccc(SC(F)F)cc1)c1ccc(F)cc1	1.3 (≈ 4.37 µM)
O=C(c1cc2ccccc2oc1=O)N1CCCCCCC1	42.5 (≈ 149 µM)
COc1ccccc1NC(=O)c1ccc(NC(=O)COC(=O)c2cccnc2Cl)cc1	7.4 (≈ 16.8 µM)
O=C(NCc1cccs1)C1CC(=O)N(Cc2ccccc2)C1 (stereo unspecified)	> 47.2
O=C(COC(=O)c1cnccn1)Nc1ncc(C(F)(F)F)cc1Cl	53.4 (≈ 148 µM)
O=C(COC(=O)CCC(=O)c1cccs1)NC1CC1	> 42.2
O=C(COC(=O)c1ccco1)Nc1ccc(Cl)cn1	24.8 (≈ 88.4 µM)
CC1(c2ccc3noc(-c4cccc(F)c4)c3c2)OCCO1	< 0.6
COc1ccc(N(CC(=O)N2CCOCC2)S(C)(=O)=O)cc1OC	> 53.8
COc1cc(/C=C/C(=O)O)cc(S(=O)(=O)NCC2CCCO2)c1OC (stereo unspecified)	53.3 (≈ 144 µM)
O=C(NC(=S)NCc1ccc(Cl)cc1)c1ccco1	10.6 (≈ 36 µM)
CC(C)c1ccc(NC(=O)NCc2cccnc2)cc1	> 40.4
CC(=O)Nc1ccccc1NC(=O)c1ccccc1-c1ccccc1	> 49.6
COc1cc(C(=O)N[C@H](C(=O)NC2CCCc3ccccc32)C(C)C)cc(OC)c1OC (stereo partly specified)	4.9 (≈ 11.1 µM)
Br.Oc1ccc(-c2cn3ccccc3n2)cc1	36.5
COC(=O)c1c(NC(=O)c2ccoc2C)sc(C)c1C	< 0.6
COCc1cc(=O)[nH]c(N2CCN(C(=O)c3ccco3)CC2)n1	> 47.7
CCC(=O)c1ccc(OCC(=O)OCC(=O)Nc2ccc3c(c2)OCCO3)cc1	18.8 (≈ 47.1 µM)
COc1cc(OC)cc(C(=O)NCC(=O)OCC(=O)NCc2ccco2)c1	> 56.5
COc1ccc(CCC2CCNCC2)cc1.Cl	> 38.4
O=C(CCC(=O)N1CCN(S(=O)(=O)c2ccccc2)CC1)c1ccc(Br)cc1	6.9 (≈ 14.8 µM)
Cc1ccc(S(=O)(=O)N2CCC(C(=O)NC3CC3)CC2)cc1	> 48.4
Oc1c(CN2CCCCC2)cc(Br)c2cccnc12	33.6 (≈ 105 µM)
COc1ccc(CCNC2=CC(=O)CC(C)(C)C2)cc1	40.4 (≈ 148 µM)

SMILES	solubility kinetic [µg/mL]
Cc1ccc(N=Cc2c(O)c3ccccc3oc2=O)cc1F	< 0.6
COc1ccccc1C1CCN(C(=O)c2ccccc2)CC1	42.4 (≈ 144 µM)
COC(=O)c1cc2ccccc2n1S(=O)(=O)c1ccccc1	< 0.7
CC(C)(C)c1ccc(C(=O)OCCN2CCCCC2)cc1.Cl	46
COc1ccccc1C(=O)Nc1nsc(-c2ccccc2)n1	8.8 (≈ 28.3 µM)
CCc1nc(Nc2ccccc2OC)c2oc3ccccc3c2n1.Cl	< 0.3
CSc1ccccc1C(=O)OCC(=O)N1CCCC1=O	> 44
N#CCCN1CCN(S(=O)(=O)c2ccc3c(c2)CCC3)CC1	> 47.9
CC(C)(C)C(=O)Nc1sc(-c2ccccc2)cc1C(=O)O	> 45.5
CN1C[C@@H]2C[C@@H](c3cccn3-c3nccs3)N3CCC[C@@]23C1=O	47.2 (≈ 144 µM)
CCOc1ccc(-c2nc[nH]c2[N+](=O)[O-])cc1	1.7 (≈ 7.29 µM)
CC(=O)c1sc(Nc2nc3cc4c(cc3s2)OCO4)nc1C	0.6 (≈ 1.8 µM)
Cl.NCCCCCC(=O)Nc1ccncc1	> 36.6
Cc1cccc(C(=O)OCC(=O)NCC2COc3ccccc3O2)c1 (stereo unspecified)	5.9 (≈ 17.3 µM)
CCC(CO)N=CC1=C(O)CC(c2ccccc2)CC1=O (stereo unspecified)	> 43.1
CCOC(=O)COn1c(=O)c(-c2ccc(OC)cc2)[n+]([O-])c2ccccc21	42 (≈ 113 µM)
N/C(=N\OC(=O)CSc1ccccc1)c1ccccn1	> 43.1
COc1ccc2cc(C#N)c(SCC(=O)Nc3nonc3C)nc2c1	3.4 (≈ 9.57 µM)
CC1CCCCC1NC(=O)C(C)N1C(=O)c2ccccc2C1=O (stereo unspecified)	> 47.2
Cc1ccc(C)c2sc(N)nc12	> 26.7
CCC(C(=O)Nc1nc(C)c(C)s1)c1ccccc1 (stereo unspecified)	38.3 (≈ 140 µM)
NC(=O)COC(=O)C1c2ccccc2Oc2ccccc21	41.9 (≈ 148 µM)
CCN(C(=O)c1ccco1)C1C2CC3CC(C2)CC1C3 (stereo unspecified)	26.1 (≈ 95.5 µM)
COc1ccc(N2CCN(C(=S)Nc3ccccc3)CC2)cc1	1.3 (≈ 3.97 µM)
COc1cccc(Nc2ccc(-n3ccnc3)nn2)c1	> 40.1

SMILES	solubility kinetic [µg/mL]
N/C(=N\OC(=O)/C=C/c1ccccc1Cl)c1cccnc1	14.9 (≈ 49.4 µM)
COC(=O)c1sccc1NC(=O)c1ccc(C#N)cc1	1.8 (≈ 6.29 µM)
O=C(Nc1ccc2ccccc2c1)c1ccc(Cl)cc1	< 0.6
O=C(CNC(=O)c1cnccc1C(F)(F)F)c1cccc(Cl)c1	25.3 (≈ 73.8 µM)
O=C(N/N=C/c1ccc(O)c(O)c1)C1CC1	> 33
CC1CCN(C(C(=O)O)c2ccccc2)CC1.Cl (stereo unspecified)	> 40.5
COc1ccc(CC(=O)NCCCc2ccccc2)cc1OC	> 47
CN1CCN(NC(=O)c2cccc(C(F)(F)F)c2)CC1	> 43.1
CC(=O)c1sc(NC(=O)c2ccc(C)c(C)c2)nc1C	< 0.3
O=[N+]([O-])c1ccc2nc(Cl)nc(-c3ccccc3)c2c1	4.8 (≈ 16.8 µM)
Cc1ccc(S(=O)(=O)Nc2cc3c4c(c2)CC(=O)N4CCC3)cc1	8.6 (≈ 25.1 µM)
O=C(CNCc1cccc(Cl)c1)N1CCc2ccccc2C1	38.9 (≈ 124 µM)
O=C(COc1ncnc2cc(Cl)ccc12)c1ccccc1	3.2 (≈ 10.7 µM)
COC(c1ccccc1)c1nnc(CCC(=O)NC2CCCCC2)o1 (stereo unspecified)	> 51.5
N#Cc1ccc(OCC(=O)Nc2ccc(S(=O)(=O)N3CCOCC3)cc2)cc1	5.5 (≈ 13.7 µM)
CCC1CCCCN1C(=O)CSc1nc(N)cc(N)n1 (stereo unspecified)	43.1 (≈ 146 µM)
Cc1cc2nc(-c3ccc[nH]c3=O)n(Cc3ccccc3F)c2cc1C	0.4 (≈ 1.15 µM)
COC(=O)c1c(C)oc(C)c1S(=O)(=O)N1CCCC1	38.3 (≈ 133 µM)
CC(Sc1nccn1C)C(=O)NC1(C#N)CCCCC1 (stereo unspecified)	> 43.9
COCCn1c(C)cc(C(=O)CSc2nc(C)c(C)c(C)n2)c1C	45.3 (≈ 130 µM)
CC1CCCC(NC(=O)Cn2cc(Br)ccc2=O)C1C (stereo unspecified)	> 51.2
Cc1ccc(-c2cc(-c3ccccc3)nc(N)c2C#N)o1	< 0.2
Cc1ccccc1C(=O)Nc1cccc(NC(=O)c2ccccc2[N+](=O)[O-])c1	1.2 (≈ 3.2 µM)
COc1ccc(CCNC(=O)c2cc(=O)[nH]c3ccccc23)cc1	1.9 (≈ 5.89 µM)
Cc1ccc(C)c(NS(=O)(=O)c2ccc3oc(=O)ccc3c2)c1	1.4 (≈ 4.25 µM)

SMILES	solubility kinetic [µg/mL]
Cc1cccc(NS(=O)(=O)c2ccc3oc(=O)ccc3c2)c1C	44.8 (≈ 136 µM)
COCCCn1c(=O)c2ccccc2n2c(=S)[nH]nc12	> 43.6
CC(C)C1CC(CCN)(c2ccccc2)CCO1.O=C(O)C(=O)O (stereo unspecified)	> 50.6
Cc1ccc(NS(=O)(=O)c2csc(C(N)=O)c2)cc1C	18.9 (≈ 60.9 µM)
O=C(CNC(=O)Cc1ccccc1)NCc1cccs1	41.9 (≈ 145 µM)
CNC(=O)NC(O)C(Cl)(Cl)Cl (stereo unspecified)	33.1 (≈ 149 µM)
O=C(NCCCO)C(=O)Nc1cc2c3c(c1)CCN3C(=O)CC2	> 47.6
CC(OC(=O)c1ccncc1)C(=O)Nc1cccc([N+](=O)[O-])c1 (stereo unspecified)	> 47.3
O=C(NC1CCCc2ccccc21)N[C@@H](Cc1ccccc1)C(=O)O (stereo partly specified)	> 50.8
O=C(c1ccc(Cl)cc1)N1CCn2c1nc1ccccc12	1.1 (≈ 3.69 µM)
COCC(=O)Nc1ccccc1-c1ccccc1	> 36.2
COC(=O)Nc1nc2ccc(C(=O)c3cccs3)cc2[nH]1	0.3 (≈ 0.996 µM)
Cc1ccc(C(=O)OCC(=O)NCC2CCCO2)c(C)c1 (stereo unspecified)	> 43.7
CCN1C(=O)C(=Cc2cc(C)n(C3CC3)c2C)C(=O)N(CC)C1=S	2.8 (≈ 8.1 µM)
Cc1ccc(C(=O)NC(C)CCc2ccccc2)cc1S(=O)(=O)N1CCOCC1 (stereo unspecified)	5.6 (≈ 13.4 µM)
COC(=O)c1ccc(OCC(=O)NC2CCCCCCC2)cc1	> 47.9
COc1ccccc1CN(C)C(=O)CNC(=O)c1cccc(Cl)c1	50.8 (≈ 146 µM)
O=C(/C=C/c1ccccc1Cl)OCC(=O)c1ccc[nH]1	6.3 (≈ 21.7 µM)
O=C(Nc1ccc2c(c1)OCO2)c1cc(-c2ccccc2Cl)on1	1.7 (≈ 4.96 µM)
N#CCn1cnc2c(oc3ccccc32)c1=O	> 33.8
CC1CCCCC1NC(=S)Nc1ccc(Cl)cc1Cl (stereo unspecified)	1 (≈ 3.15 µM)
